Where “and” joins values, the source holds several entries; their conditions need not be identical. Equal values may be shown once. Read-outs that look alike come from different tables or passages of the source.
Assays:
Assay type in all cases: cell-based
[1] = cytotoxicity in Drosophila DL1 cells; details: Drosophila, DL1 cells (embryonic macrophage-derived), DL1 cells
Method: (§1) We screened the DDPs on the Drosophila assay system for cytotoxicity, inhibitory activity of innate immune signalling and insecticidal activity. The cytotoxicity of the DDPs was evaluated using two cell lines, embryonic macrophage-derived DL1 cells[58]–[60] and larval blood cell-derived l(2)mbn cells, and their IC50 values are listed in Supplementary Table 23.

DL1 cells = test: cytotoxicity in Drosophila DL1 cells; details: for IC50: Drosophila melanogaster
Method: as §1

[2] = cytotoxicity in Drosophila l(2)mbn cells; details: Drosophila, l(2)mbn cells (larval blood cell-derived)
Method: as §1

l(2)mbn cells = test: cytotoxicity in Drosophila l(2)mbn cells; details: for Luminescence Raw1: replicate 1; for Luminescence Raw2: replicate 2; for IC50: Drosophila melanogaster, cytotoxicity
Method: as §1

[3] = test system: human immunodeficiency virus-1 (HIV-1); test: anti-HIV MAGI assay; details: anti-HIV
Text: We examined the inhibitory activities of DDPs against various species of bacteria (both gram-negative and gram-positive bacteria), fungi and viruses. […] In contrast, preliminary screening of the DDPs for anti-viral agents with hepatitis B virus (HBV), measles virus (MV), Epstein-Barr virus (EBV), herpes simplex virus (HSV) and human immunodeficiency virus-1 (HIV-1) indicated their selective inhibition of HIV.

[4] = replicate 1, relative to DMSO 1%, read-out: % viability, viability 1
[5] = replicate 2, relative to DMSO 1%, read-out: % viability, viability 2

C=C1CC[C@H]2[C@]3(C)C[C@@H](C=C(C)C)O[C@H]3CC[C@]2(C)[C@@H]1Cc1c(O)c(C)c(C)oc1=O [Compound 5, subglutinol A]
viability at 0.04 µM [1, 4]: 6.35%
viability at 0.04 µM [1, 5]: 8.13%
viability at 0.2 µM [1, 4]: 3.78%
viability at 0.2 µM [1, 5]: 4.95%
viability at 1 µM [1, 4]: 3.62%
viability at 1 µM [1, 5]: 3.84%
viability at 4 µM [1, 4]: 3.94%
viability at 4 µM [1, 5]: 4.03%
viability at 10 µM [1, 4]: 3.69%
viability at 10 µM [1, 5]: 4.2%
viability at 20 µM [1, 4]: 3.33%
viability at 20 µM [1, 5]: 3.4%
Luminescence Raw1 (DL1 cells; DL1 cells, 0.04 µM, replicate 1): 261750
Luminescence Raw2 (DL1 cells; DL1 cells, 0.04 µM, replicate 2): 334946
Luminescence Raw1 (DL1 cells; DL1 cells, 0.2 µM, replicate 1): 155744
Luminescence Raw2 (DL1 cells; DL1 cells, 0.2 µM, replicate 2): 204060
Luminescence Raw1 (DL1 cells; DL1 cells, 1 µM, replicate 1): 149254
Luminescence Raw2 (DL1 cells; DL1 cells, 1 µM, replicate 2): 158268
Luminescence Raw1 (DL1 cells; DL1 cells, 4 µM, replicate 1): 162234
Luminescence Raw2 (DL1 cells; DL1 cells, 4 µM, replicate 2): 166201
Luminescence Raw1 (DL1 cells; DL1 cells, 10 µM, replicate 1): 152139
Luminescence Raw2 (DL1 cells; DL1 cells, 10 µM, replicate 2): 173051
Luminescence Raw1 (DL1 cells; DL1 cells, 20 µM, replicate 1): 137356
Luminescence Raw2 (DL1 cells; DL1 cells, 20 µM, replicate 2): 139880
IC50 (DL1 cells; DL1 cells, cytotoxicity, average of two replicates, read-out: IC50 Average): < 40 nM
IC50 (DL1 cells; DL1 cells, cytotoxicity, replicate 1, read-out: IC50 (1)): < 40 nM
IC50 (DL1 cells; DL1 cells, cytotoxicity, replicate 2, read-out: IC50 (2)): < 40 nM
IC50 (DL1 cells; DL-1 cell line, cell growth, read-out: IC50): < 40 nM
viability at 0.04 µM [2, 4]: 139%
viability at 0.04 µM [2, 5]: 137%
viability at 0.2 µM [2, 4]: 19.9%
viability at 0.2 µM [2, 5]: 17%
viability at 1 µM [2, 4]: 8.99%
viability at 1 µM [2, 5]: 8.5%
viability at 4 µM [2, 4]: 8.31%
viability at 4 µM [2, 5]: 7.53%
viability at 10 µM [2, 4]: 8.2%
viability at 10 µM [2, 5]: 8.05%
viability at 20 µM [2, 4]: 7.67%
viability at 20 µM [2, 5]: 7.74%
Luminescence Raw1 (l(2)mbn cells; 0.04 µM): 3571044
Luminescence Raw2 (l(2)mbn cells; 0.04 µM): 3503586
Luminescence Raw1 (l(2)mbn cells; 0.2 µM): 510842
Luminescence Raw2 (l(2)mbn cells; 0.2 µM): 436923
Luminescence Raw1 (l(2)mbn cells; 1 µM): 230676
Luminescence Raw2 (l(2)mbn cells; 1 µM): 218056
Luminescence Raw1 (l(2)mbn cells; 4 µM): 213369
Luminescence Raw2 (l(2)mbn cells; 4 µM): 193177
Luminescence Raw1 (l(2)mbn cells; 10 µM): 210485
Luminescence Raw2 (l(2)mbn cells; 10 µM): 206518
Luminescence Raw1 (l(2)mbn cells; 20 µM): 196783
Luminescence Raw2 (l(2)mbn cells; 20 µM): 198586
IC50 (l(2)mbn cells; average of two replicates, read-out: IC50 Average): 190 nM
IC50 (l(2)mbn cells; average±SEM, read-out: IC50): 190 ± 10 nM
IC50 (l(2)mbn cells; replicate 1, read-out: IC50 (1)): 194 nM
IC50 (l(2)mbn cells; replicate 2, read-out: IC50 (2)): 180 nM
EC50 ([3]; Human immunodeficiency virus 1, MAGI, MAGI assay, read-out: EC50): < 200 nM
EC50 ([3]; Human immunodeficiency virus 1, MAGI, average of numeric determinations, read-out: Avg. EC50): 38.9 nM
EC50 ([3]; Human immunodeficiency virus 1, MAGI, single determinations, read-out: Efficacy (EC50)): 36.3 nM
EC50 ([3]; single determinations, read-out: Efficacy (EC50)): 29.8 nM and 37.9 nM and 51.4 nM
